Test results: patent publication US12171756B2, “NLRP3 modulators” (Innate Tumor Immunity, Inc., priority 2017, dated 2024)
Like-named read-outs stand apart in the source and are kept apart here.

Key:
[1] = system: IL-1β production in PMA-differentiated THP-1 cells; experiment: Measurement of IL-1β production in PMA-differentiated THP-1 cells (ELISA, 4 hours); assay type: cell-based, human; settings: assayed using one or more of the described procedures, read-out: NLRP3 hIL1B IC50
Outline: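 THP-1 cells differentiated with PMA (10 μg/ml, 24 h), replated at 1×10^6 cells/ml in RPMI with 2% FBS and exposed to compounds (e.g. 0.1–100 μM, 1% DMSO final) for 4 hours. IL-1β in cell-free supernatant quantified by ELISA against vehicle control.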

[2] = molecular target: T1, human TLR7 (Homo sapiens, UniProt Q9NYK1); experiment: In vitro human TLR7 binding reporter assay (HEK-Blue, NF-kB/AP1-inducible SEAP); assay type: cell-based; settings: HEK-Blue human TLR7 SEAP reporter cells; activity range classes; read-out: TLR7 Agonist EC50
T1 construct: host or cells: human HEK-Blue cells (HEK293-derived) co-expressing TLR7 and an NF-kB/AP1-inducible SEAP reporter
T1 sequence (Q9NYK1 27-1049): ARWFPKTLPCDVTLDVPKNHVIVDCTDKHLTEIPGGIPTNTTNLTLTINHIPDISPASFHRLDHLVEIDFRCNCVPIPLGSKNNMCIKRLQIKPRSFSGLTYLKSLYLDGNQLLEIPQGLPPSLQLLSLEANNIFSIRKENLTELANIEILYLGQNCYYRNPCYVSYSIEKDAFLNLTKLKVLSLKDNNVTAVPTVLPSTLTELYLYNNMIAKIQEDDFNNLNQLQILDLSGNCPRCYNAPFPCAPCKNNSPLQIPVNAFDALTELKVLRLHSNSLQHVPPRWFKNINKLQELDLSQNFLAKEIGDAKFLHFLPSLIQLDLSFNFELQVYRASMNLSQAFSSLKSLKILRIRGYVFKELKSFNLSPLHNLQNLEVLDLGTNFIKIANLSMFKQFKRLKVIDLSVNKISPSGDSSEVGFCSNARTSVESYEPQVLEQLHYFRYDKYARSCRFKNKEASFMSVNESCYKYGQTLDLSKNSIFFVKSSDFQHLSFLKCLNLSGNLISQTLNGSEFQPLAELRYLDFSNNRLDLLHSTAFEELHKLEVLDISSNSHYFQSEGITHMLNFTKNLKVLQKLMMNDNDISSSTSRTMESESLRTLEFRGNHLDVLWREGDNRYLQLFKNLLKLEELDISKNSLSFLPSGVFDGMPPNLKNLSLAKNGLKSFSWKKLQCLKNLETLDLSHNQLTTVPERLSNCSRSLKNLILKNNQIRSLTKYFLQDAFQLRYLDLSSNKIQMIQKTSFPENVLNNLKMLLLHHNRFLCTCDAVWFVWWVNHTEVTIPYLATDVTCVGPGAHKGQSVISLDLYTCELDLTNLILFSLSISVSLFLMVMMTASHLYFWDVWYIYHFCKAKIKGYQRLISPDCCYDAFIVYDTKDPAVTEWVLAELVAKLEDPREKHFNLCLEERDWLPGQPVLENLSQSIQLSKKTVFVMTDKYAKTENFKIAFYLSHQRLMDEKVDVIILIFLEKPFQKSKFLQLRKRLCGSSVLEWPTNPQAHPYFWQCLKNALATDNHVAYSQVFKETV
Outline: (§1)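 Cells are seeded and grown for 24 h. Compounds or DMSO are then added and incubated 18 h at 37 °C. Quanti-Blue is added, and SEAP is read after thirty minutes. EC50 values are normalized, with RLU from 50 μM reference standard setting 100% Ymax.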

[3] = molecular target: T2, human TLR8 (Homo sapiens, UniProt Q9NR97); experiment: In vitro human TLR8 binding reporter assay (HEK-Blue, NF-kB/AP1-inducible SEAP); assay type: cell-based; settings: HEK-Blue human TLR8 SEAP reporter cells; activity range classes; read-out: TLR8 Agonist EC50
T2 construct: host or cells: human HEK-Blue cells (HEK293-derived) co-expressing TLR8 and an NF-kB/AP1-inducible SEAP reporter
T2 sequence (Q9NR97 27-1041): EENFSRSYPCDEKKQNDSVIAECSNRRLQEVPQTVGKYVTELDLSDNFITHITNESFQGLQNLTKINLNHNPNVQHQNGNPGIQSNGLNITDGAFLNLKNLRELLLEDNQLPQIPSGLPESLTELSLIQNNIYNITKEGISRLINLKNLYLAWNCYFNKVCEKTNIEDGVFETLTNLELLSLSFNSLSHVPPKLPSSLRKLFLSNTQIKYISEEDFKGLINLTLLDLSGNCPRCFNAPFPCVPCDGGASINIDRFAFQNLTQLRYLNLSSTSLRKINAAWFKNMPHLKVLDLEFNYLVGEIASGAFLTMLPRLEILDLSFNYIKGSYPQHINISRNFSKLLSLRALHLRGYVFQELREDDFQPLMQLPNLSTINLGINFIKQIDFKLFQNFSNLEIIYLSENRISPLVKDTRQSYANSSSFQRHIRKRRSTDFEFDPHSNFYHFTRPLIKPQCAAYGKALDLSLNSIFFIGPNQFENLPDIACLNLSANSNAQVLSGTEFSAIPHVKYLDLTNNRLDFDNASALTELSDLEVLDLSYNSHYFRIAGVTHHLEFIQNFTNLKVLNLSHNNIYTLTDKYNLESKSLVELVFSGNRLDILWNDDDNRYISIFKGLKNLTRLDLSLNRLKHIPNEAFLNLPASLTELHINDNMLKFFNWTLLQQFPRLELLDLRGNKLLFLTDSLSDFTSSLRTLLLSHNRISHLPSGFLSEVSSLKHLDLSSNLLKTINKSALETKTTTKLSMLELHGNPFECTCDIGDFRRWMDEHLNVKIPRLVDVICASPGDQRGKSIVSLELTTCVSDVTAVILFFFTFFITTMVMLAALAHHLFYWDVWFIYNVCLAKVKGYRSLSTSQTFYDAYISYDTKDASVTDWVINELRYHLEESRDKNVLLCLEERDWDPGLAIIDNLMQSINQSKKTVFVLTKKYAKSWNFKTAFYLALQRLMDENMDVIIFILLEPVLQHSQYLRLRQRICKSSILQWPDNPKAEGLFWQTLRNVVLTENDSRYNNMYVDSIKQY
Outline: as §1

[4] = Homo sapiens, THP-1, human IL-1β production

SMILES | IC50 [1, 4] [µM] | EC50 [2] [µM] | EC50 [3] [µM] | IC50 ([1]; human IL-1β production) [µM]
Nc1nc2cc(-c3cc[nH]n3)ccc2cc1CCCCCO [Compound 101, 5-[2-amino-7-(1H-pyrazol-3-yl)quinolin-3-yl]pentan-1-ol] | 0.79 | > 100 | > 100 | –
Nc1cc(NCCCn2ccnc2)c2ccc(-c3ccn[nH]3)cc2n1 [Compound 241] | 2.25 | > 100 | > 100 | –
Nc1cc(NCC(O)c2ccccn2)c2ccc(-c3ccn[nH]3)cc2n1 (stereo not drawn) [Compound 155] | 0.42 | > 100 | > 100 | –
Nc1cc(NCCn2cncn2)c2ccc(-n3cccn3)cc2n1 [Compound 308] | 0.52 | > 100 | > 100 | –
CCN(CCCc1cc2ccc(-c3cc[nH]n3)cc2nc1N)C(C)=O [Compound 112, N-[3-[2-amino-7-(1H-pyrazol-3-yl)quinolin-3-yl]propyl]-N-ethylacetamide] | 2.56 | > 100 | > 100 | –
Nc1cc(NCc2ccncc2)c2ccc(-c3ccn[nH]3)cc2n1 [Compound 148] | 1.64 | > 100 | > 100 | –
Nc1cc(NCCc2cccnn2)c2ccc(-c3ccsc3)cc2n1 [Compound 341, N4-(2-(pyridazin-3-yl)ethyl)-7-(thiophen-3-yl)quinolin-2,4-diamine] | 0.62 | > 100 | > 100 | –
Nc1cc(N2CCOCC2)c2ccc(-c3ccn[nH]3)cc2n1 [Compound 131] | 0.85 | > 100 | > 100 | –
CC(C)(C)OC(=O)N1CC(Nc2cc(N)nc3cc(-c4ccn[nH]4)ccc23)C1 [Compound 270] | 7.37 | > 100 | > 100 | –
CN(Cc1cccnc1)c1cc(N)nc2cc(-c3ccn[nH]3)ccc12 [Compound 264] | 2.89 | > 100 | > 100 | –
CC(CO)(CO)COc1cc(N)nc2cc(-c3ccn[nH]3)ccc12 [Compound 194] | 2.23 | > 100 | > 100 | –
CCOCCOc1cc(N)nc2cc(-c3ccn[nH]3)ccc12 [Compound 185] | 0.56 | > 100 | > 100 | –
Nc1cc(NC2CCOC2)c2ccc(-c3ccn[nH]3)cc2n1 (stereo not drawn) [Compound 275] | 0.2 | > 100 | > 100 | –
Nc1cc(N[C@H]2C[C@@H](O)C2)c2ccc(-c3ccn[nH]3)cc2n1 [Compound 234] | 0.23 | > 100 | > 100 | –
Nc1cc(NCCCn2cncn2)c2ccc(-c3ccn[nH]3)cc2n1 [Compound 231] | 1.27 | > 100 | > 100 | –
Nc1cc(CCCO)c2ccc(-n3cccn3)cc2n1 [Compound 216, 3-(2-amino-7-(1H-pyrazol-1-yl)quinolin-4-yl)propan-1-ol] | 2.23 | > 100 | > 100 | –
Nc1cc(N[C@H]2CCCC[C@@H]2O)c2ccc(-c3ccn[nH]3)cc2n1 [Compound 160] | 2.76 | > 100 | > 100 | –

SMILES | IC50 [1, 4] [µM] | EC50 [2] [µM] | EC50 [3] [µM] | IC50 ([1]; human IL-1β production) [µM]
Nc1cc(NCc2cc[nH]n2)c2ccc(-n3cccn3)cc2n1 [Compound 292] | 0.34 | > 100 | > 100 | –
Nc1cc(N[C@@H]2CC[C@@H](O)C2)c2ccc(-c3ccn[nH]3)cc2n1 [Compound 248] | 0.33 | > 100 | > 100 | –
Nc1cc(OCCc2ccsc2)c2ccc(-c3cc[nH]n3)cc2n1 [Compound 329, 7-(1H-pyrazol-3-yl)-4-(2-(thiophen-3-yl)ethoxy)quinolin-2-amine] | 0.67 | > 100 | > 100 | –
C[C@@H](CO)Nc1cc(N)nc2cc(-c3ccn[nH]3)ccc12 [Compound 165] | 0.47 | > 100 | > 100 | –
Nc1cc(OCCc2ccsc2)c2ccc(-c3ccsc3)cc2n1 [Compound 331] | 14.6 | > 100 | > 100 | –
Nc1cc(N[C@@H]2CC[C@H](O)C2)c2ccc(-c3ccn[nH]3)cc2n1 [Compound 247] | 0.48 | > 100 | > 100 | –
Nc1nc2cc(-c3cc[nH]n3)ccc2cc1CCCCOCc1ccccc1 [Compound 105, 3-[4-(benzyloxy)butyl]-7-(1H-pyrazol-3-yl)quinolin-2-amine] | 2.98 | > 100 | > 100 | –
Nc1cc(OCC2(CO)CC2)c2ccc(-c3ccn[nH]3)cc2n1 [Compound 192] | 0.63 | > 100 | > 100 | –
Nc1cc(N[C@H]2CCC[C@H]2O)c2ccc(-c3ccn[nH]3)cc2n1 [Compound 235] | 0.86 | > 100 | > 100 | –
Nc1cc(NCCC2CCOCC2)c2ccc(-c3ccsc3)cc2n1 [Compound 345, N4-(2-(tetrahydro-2H-pyran-4-yl)ethyl)-7-(thiophen-3-yl)quinoline-2,4-diamine] | 1.77 | > 100 | > 100 | –
Nc1cc(NCCO)c2ccc(-c3cc[nH]n3)cc2n1 [Compound 169] | 1.37 | > 100 | > 100 | –
Nc1cc(N[C@H]2CC[C@@H](O)C2)c2ccc(-c3ccn[nH]3)cc2n1 [Compound 245] | 1.34 | > 100 | > 100 | –
CC(C)(O)CCOc1cc(N)nc2cc(-c3ccn[nH]3)ccc12 [Compound 195] | 0.93 | > 100 | > 100 | –
Nc1cc(NCCn2cccn2)c2ccc(-c3ccn[nH]3)cc2n1 [Compound 262] | 0.12 | > 100 | > 100 | –
Nc1cc(NC2CCNC2)c2ccc(-c3ccn[nH]3)cc2n1 (stereo in doubt) [Compound 321, (S)-7-(1H-pyrazol-3-yl)-N4-(pyrrolidin-3-yl)quinoline-2,4-diamine] | – | > 100 | > 100 | 11.6
Nc1cc(N2CCCNCC2)c2ccc(-c3cc[nH]n3)cc2n1 [Compound 286] | 13.1 | > 100 | > 100 | –
